Experimental data: patent US20250064844A1 (Emory University, priority 2020, published 2025)
Like-named read-outs stand apart in the source and are kept apart here.

Legend:
HepG2 cells = test: Cell uptake and metabolism of EIDD-2801 in HepG2 cells; details: intracellular analyte; HepG2 cells incubated with 20 μM EIDD-2801, 1-24 hours
HCoV = test: organism not typed; type: cell-based; details: Vero C1008
[1] = human, in vivo
SARS-CoV2 = test: microbe, parasite or virus in culture; type: cell-based; details: Severe acute respiratory syndrome coronavirus 2, Vero
Huh-7 cells = test: Cell uptake and metabolism of EIDD-2801 in Huh-7 cells; details: intracellular analyte; Huh-7 cells incubated with 20 μM EIDD-2801, 1-24 hours
SARS [2] = test: organism not typed; type: cell-based; details: Vero C1008, SARS; Vero E6
[3] = cynomolgus monkey, in vivo, po
Vero cells = test: Cell uptake and metabolism of EIDD-2801 in Vero cells; details: intracellular analyte; Vero cells incubated with 20 μM EIDD-2801, 1-24 hours
SARS [4] = test: organism not typed; type: cell-based; details: Vero C1008
CEM cells = test: Cell uptake and metabolism of EIDD-2801 in CEM cells; details: intracellular analyte; CEM cells incubated with EIDD-2801 (40 μM solution prepared), 1-24 hours
clinical = details: human, in vivo; for AUC(0-inf): AUCinf

With O=c1nc(NO)ccn1C1OC(CO)C(O)C1O (stereo not shown) [EIDD-1931, 1-(3,4-dihydroxy-5-(hydroxymethyl)tetrahydrofuran-2-yl)-4-(hydroxyamino)pyrimidin-2-one] the “AUC0−>t” value (HepG2 cells) was 249.8 pmol · h/M cells, the Cmax (HepG2 cells) was 13.4 pmol/M Cells and the EC50 (HCoV) was < 400 nM. For the same molecule, the “Slope (90% Confidence Interval) of power model, AUCinf” value [1] was 1.07 (1.02, 1.13), the “Slope (90% Confidence Interval) of power model, AUClast” value [1] was 1.09 (1.03, 1.15) and the “Slope (90% Confidence Interval) of power model, Cmax” value [1] was 1.01 (0.927, 1.08). For the same molecule, the “Slope of power model, AUCinf” value [1] was 1.10, the “Slope of power model, AUClast” value [1] was 1.11 and the “Slope of power model, AUCt” value [1] was 1.08. For the same molecule, the “delay of median tmax, capsule vs solution formulation” value [1] was “up to 0.75 hours”, the “dose excreted in urine as EIDD-1931” value [1] was 0.854-3.61% and the “geometric mean accumulation ratio based on AUCt” value [1] was 0.938-1.16. For the same molecule, the “geometric mean accumulation ratio based on Cmax” value [1] was 0.843-1.10, the “geometric mean ratio of AUCinf, capsule (multiple-dose cohorts Day 1) vs solution (single-dose cohorts)” value [1] was 0.91-1.09 and the “geometric mean ratio of Cmax, capsule vs solution formulation” value [1] was 0.76-1.00. For the same molecule, the “RAcmax (accumulation ratio)” value ([1]; 50 mg) was 0.843, the “RAcmax (accumulation ratio)” value ([1]; 100 mg) was 1.10 and the “FEAUC/inf (ratio of AUCinf fed:fasted)” value ([1]; 200 mg) was 0.955. For the same molecule, the “FECmax (ratio of Cmax fed:fasted)” value ([1]; 200 mg) was 0.644, the “RAcmax (accumulation ratio)” value ([1]; 200 mg) was 0.969 and the “mean Cmax lower in the fed state compared to the fasted state” value ([1]; 200 mg) was “approximately 36%”. For the same molecule, the “RAcmax (accumulation ratio)” value ([1]; 300 mg) was 0.861, the “RAcmax (accumulation ratio)” value ([1]; 400 mg) was 0.962 and the “RAcmax (accumulation ratio)” value ([1]; 600 mg) was 1.04. The “RAcmax (accumulation ratio)” value ([1]; 800 mg) was 1.09, the t1/2 ([1]; 800 mg) was 7.08¶ h and the EC50 (SARS-CoV2) was 300 nM. The “AUC0−>t” value (Huh-7 cells) was 449.2 pmol · h/M cells, the Cmax (Huh-7 cells) was 29.0 pmol/M Cells and the EC50 (SARS [2]) was < 800 nM. The “bioavailability” value [3] was “low bioavailability”, the “AUC0−>t” value (Vero cells) was 228.6 pmol · h/M cells and the Cmax (Vero cells) was 13.5 pmol/M Cells. The EC90 (SARS [4]) was < 800 nM, the “AUC0−>t” value (CEM cells) was 5.8 pmol · h/M cells and the Cmax (CEM cells) was 0.3 pmol/M Cells. The AUC(0-inf) (clinical; 50 mg) was 461 ng·h/mL, the AUC(0-t) (clinical; 50 mg, AUClast) was 444 ng·h/mL and the AUC(0-t) (clinical; 50 mg, AUCt) was 461 ng·h/mL. For the same molecule, the Cmax (clinical; 50 mg) was 223 ng/mL, the half-life (clinical; 50 mg, t1/2) was 0.937 h and the Tmax (clinical; 50 mg, tmax) was 1 h. It also gave an AUC(0-inf) (clinical; 100 mg) of 855 ng·h/mL, an AUC(0-t) (clinical; 100 mg, AUClast) of 835 ng·h/mL and an AUC(0-t) (clinical; 100 mg, AUCt) of 854 ng·h/mL. It also gave a Cmax (clinical; 100 mg) of 395 ng/mL, a half-life (clinical; 100 mg, t1/2) of 0.918 h and a Tmax (clinical; 100 mg, tmax) of 1.25 h. The AUC(0-inf) (clinical; 200 mg) was 1660 ng·h/mL, the AUC(0-t) (clinical; 200 mg, AUClast) was 1720 ng·h/mL and the AUC(0-t) (clinical; 200 mg, AUCt) was 1730 ng·h/mL. It also gave a Cmax (clinical; 200 mg) of 742 ng/mL, a half-life (clinical; 200 mg, t1/2) of 1.09 h and a Tmax (clinical; 200 mg, tmax) of 1.5 h. It also gave an AUC(0-inf) (clinical; 300 mg) of 3090 ng·h/mL, an AUC(0-t) (clinical; 300 mg, AUClast) of 2980 ng·h/mL and an AUC(0-t) (clinical; 300 mg, AUCt) of 2960 ng·h/mL. It also gave a Cmax (clinical; 300 mg) of 1100 ng/mL, a half-life (clinical; 300 mg, t1/2) of 1.71 h and a Tmax (clinical; 300 mg, tmax) of 1.5 h. It also gave an AUC(0-inf) (clinical; 400 mg) of 3800 ng·h/mL, an AUC(0-t) (clinical; 400 mg, AUClast) of 3730 ng·h/mL and an AUC(0-t) (clinical; 400 mg, AUCt) of 3710 ng·h/mL. The Cmax (clinical; 400 mg) was 1470 ng/mL, the half-life (clinical; 400 mg, t1/2) was 1.2 h and the Tmax (clinical; 400 mg, tmax) was 1.5 h. For the same molecule, the AUC(0-inf) (clinical; 600 mg) was 6680 ng·h/mL, the AUC(0-t) (clinical; 600 mg, AUClast) was 7250 ng·h/mL and the AUC(0-t) (clinical; 600 mg, AUCt) was 7110 ng·h/mL. The Cmax (clinical; 600 mg) was 2240 ng/mL, the half-life (clinical; 600 mg, t1/2) was 1.16 h and the Tmax (clinical; 600 mg, tmax) was 1.75 h. For the same molecule, the AUC(0-inf) (clinical; 800 mg) was 8200 ng·h/mL, the AUC(0-t) (clinical; 800 mg, AUClast) was 8450 ng·h/mL and the AUC(0-t) (clinical; 800 mg, AUCt) was 8330 ng·h/mL. The Cmax (clinical; 800 mg) was 2970 ng/mL, the Tmax (clinical; 800 mg, tmax) was 1.5 h and the half-life (clinical; mean t1/2) was 0.918 to 1.18 h. For the same molecule, the Tmax (clinical; median tmax) was 1 to 1.75 h, the AUC(0-inf) (clinical; po, 50 mg) was 432 ng·h/mL and the AUC(0-t) (clinical; po, 50 mg, AUClast) was 415 ng·h/mL. The Cmax (clinical; po, 50 mg) was 223 ng/mL, the half-life (clinical; po, 50 mg, t1/2) was 0.945 h and the Tmax (clinical; po, 50 mg, tmax (median)) was 1 h. For the same molecule, the AUC(0-inf) (clinical; po, 100 mg) was 932 ng·h/mL, the AUC(0-t) (clinical; po, 100 mg, AUClast) was 917 ng·h/mL and the Cmax (clinical; po, 100 mg) was 454 ng/mL. The half-life (clinical; po, 100 mg, t1/2) was 0.907 h, the Tmax (clinical; po, 100 mg, tmax (median)) was 1 h and the AUC(0-inf) (clinical; po, 200 mg) was 1830 ng·h/mL. The AUC(0-t) (clinical; po, 200 mg, AUClast) was 1810 ng·h/mL, the Cmax (clinical; po, 200 mg) was 926 ng/mL and the half-life (clinical; po, 200 mg, t1/2) was 1.02 h. For the same molecule, the Tmax (clinical; po, 200 mg, tmax (median)) was 1 h, the AUC(0-inf) (clinical; po, 400 mg) was 4010 ng·h/mL and the AUC(0-t) (clinical; po, 400 mg, AUClast) was 4000 ng·h/mL. It also gave a Cmax (clinical; po, 400 mg) of 1850 ng/mL, a half-life (clinical; po, 400 mg, t1/2) of 1.03 h and a Tmax (clinical; po, 400 mg, tmax (median)) of 1 h. It also gave an AUC(0-inf) (clinical; po, 600 mg) of 6130 ng·h/mL, an AUC(0-t) (clinical; po, 600 mg, AUClast) of 6120 ng·h/mL and a Cmax (clinical; po, 600 mg) of 2720 ng/mL. The half-life (clinical; po, 600 mg, t1/2) was 1.06 h, the Tmax (clinical; po, 600 mg, tmax (median)) was 1 h and the AUC(0-inf) (clinical; po, 800 mg) was 8740 ng·h/mL. It also gave an AUC(0-t) (clinical; po, 800 mg, AUClast) of 8720 ng·h/mL, a Cmax (clinical; po, 800 mg) of 3640 ng/mL and a half-life (clinical; po, 800 mg, t1/2) of 1.29 h. The Tmax (clinical; po, 800 mg, tmax (median)) was 1 h, the AUC(0-inf) (clinical; po, 1200 mg) was 13800 ng·h/mL and the AUC(0-t) (clinical; po, 1200 mg, AUClast) was 13800 ng·h/mL. For the same molecule, the Cmax (clinical; po, 1200 mg) was 4500 ng/mL, the half-life (clinical; po, 1200 mg, t1/2) was 1.81 h and the Tmax (clinical; po, 1200 mg, tmax (median)) was 1.75 h. It also gave an AUC(0-inf) (clinical; po, 1600 mg) of 20700 ng·h/mL, an AUC(0-t) (clinical; po, 1600 mg, AUClast) of 20700 ng·h/mL and a Cmax (clinical; po, 1600 mg) of 6350 ng/mL. It also gave a half-life (clinical; po, 1600 mg, t1/2) of 4.59 h, a Tmax (clinical; po, 1600 mg, tmax (median)) of 1.5 h and a half-life (clinical; po, geometric mean terminal elimination half-lives (t1/2)) of 0.91 to 1.29 h. For the same molecule, the Tmax (clinical; po, median tmax) was 1 h.
